Measured values reported in patent publication US20260034277A1, “SYSTEMS AND METHODS FOR PATHOGEN INACTIVATION OF BLOOD PRODUCTS” (Cerus Corporation, priority 2024, published 2026).

Assays:
RBCs = assay: Hemolysis after addition to RBCs of S-303/GSH reconstituted in WFI or saline; format: cell-based
Protocol: A study was performed to evaluate water (WFI, water for injection) as an alternative to saline for reconstitution of S-303 and/or GSH, for potential advantages such as manufacturing, cost of goods and/or regulatory requirements. Initially, the combinations of S-303 and GSH both reconstituted in WFI, or alternatively GSH reconstituted in WFI and S-303 reconstituted in saline were compared to the standard method of reconstituting both GSH and S-303 in saline. Following addition to RBCs, the level of hemolysis was evaluated due to water potentially being a hypotonic environment for the RBC.
Based on the extended stability data above for reconstituting S-303 at higher concentrations, an opportunity is provided for using bulk S-303 containers and a dosing device as described above for reconstituting S-303 at higher concentrations followed by a dilution step with diluent as part of the transfer of S-303 to the RBC in the mixing container. With such a dilution step, water may be substituted as an alternative to saline in the reconstitution step for the bulk S-303, followed by dilution in saline prior to each transfer step into individual RBC processing sets. To evaluate the feasibility of water reconstitution followed by saline dilution, an additional study was performed. […]

[1] = Stability of S-303 after reconstitution, HPLC percent total peak area; format: physicochemical
[2] = as above; format: physicochemical; remark: listed apart in the source
Excerpt: Increasing the throughput of RBC processing over the current process may benefit from the preparation of multi-use “bulk” containers of S-303 and GSH stock solutions for transfer (e.g., sequential transfer) into multiple processing sets to treat multiple RBC units. However, the instability of S-303 after reconstitution in the current INTERCEPT Blood System technology would generally not be suitable for such a multi-dose container approach. Toward an objective of multi-dose “bulk” dosing, which would require much longer hold times post-reconstitution, studies were performed to evaluate the stability of S-303 under different conditions, such as when reconstituted at higher concentrations. As control, S-303 was reconstituted at a concentration of 6.1 mM. Additional study arms reconstituted S-303 at 9.4 mM, 14.4 mM and 28.8 mM (Table 10). S-303 levels were measured over 120 min after reconstitution by standard HPLC and calculated as total peak area (e.g., area under the peak, area under the curve) to determine percent stability (percent total area).
Subsequent studies were performed in a similar manner as the above to further evaluate S-303 stability at higher concentrations than tested initially, including reconstitution at 40 mM, 50 mM and 75 mM concentrations.

O=C(CCNc1c2ccccc2nc2ccccc12)OCCN(CCCl)CCCl [S-303, β-alanine, N-(acridin-9-yl), 2-[bis(2-chloroethyl)amino]ethyl ester]
hemolysis (RBCs; S-303 reconstituted at 28.8 mM or 50 mM in WFI, diluted to 6 mM in saline prior to addition to RBCs, GSH in WFI (FIG. 7)): eliminated the issue of hydrolysis previously observed
level of hemolysis (RBCs; S-303 reconstituted in WFI, after addition to RBCs, compared with saline reconstitution (FIG. 6)): notable levels of hemolysis
stability time, extrapolation of the data in a best fit curve ([1]; 100 mM concentration): approximately 170 min
stability time, extrapolation of the data in a best fit curve ([1]; 150 mM concentration): ~240 min
stability, glass vials vs hemocompatible blood bags of different sheeting materials ([2]; 75 mM): no differences in stability observed
Mean % stability ([2]; reconstituted at 6.1 mM (control), 1 min): 98%
Mean % stability ([2]; reconstituted at 6.1 mM (control), 10 min): 97%
Mean % stability ([2]; reconstituted at 6.1 mM (control), 20 min): 95%
Mean % stability ([2]; reconstituted at 6.1 mM (control), 30 min): 94%
Mean % stability ([2]; reconstituted at 6.1 mM (control), 45 min): 92%
Mean % stability ([2]; reconstituted at 6.1 mM (control), 60 min): 90%
Mean % stability ([2]; reconstituted at 6.1 mM (control), 90 min): 87%
Mean % stability ([2]; reconstituted at 6.1 mM (control), 120 min): 85%
Mean % stability ([2]; reconstituted at 9.4 mM, 1 min): 98%
Mean % stability ([2]; reconstituted at 9.4 mM, 10 min): 97%
Mean % stability ([2]; reconstituted at 9.4 mM, 20 min): 96%
Mean % stability ([2]; reconstituted at 9.4 mM, 30 min): 95%
Mean % stability ([2]; reconstituted at 9.4 mM, 45 min): 93%
Mean % stability ([2]; reconstituted at 9.4 mM, 60 min): 92%
Mean % stability ([2]; reconstituted at 9.4 mM, 90 min): 90%
Mean % stability ([2]; reconstituted at 9.4 mM, 120 min): 87%
Mean % stability ([2]; reconstituted at 14.4 mM, 1 min): 99%
Mean % stability ([2]; reconstituted at 14.4 mM, 10 min): 97%
Mean % stability ([2]; reconstituted at 14.4 mM, 20 min): 96%
Mean % stability ([2]; reconstituted at 14.4 mM, 30 min): 96%
Mean % stability ([2]; reconstituted at 14.4 mM, 45 min): 95%
Mean % stability ([2]; reconstituted at 14.4 mM, 60 min): 94%
Mean % stability ([2]; reconstituted at 14.4 mM, 90 min): 92%
Mean % stability ([2]; reconstituted at 14.4 mM, 120 min): 90%
Mean % stability ([2]; reconstituted at 28.8 mM, 1 min): 99%
Mean % stability ([2]; reconstituted at 28.8 mM, 10 min): 98%
Mean % stability ([2]; reconstituted at 28.8 mM, 20 min): 97%
Mean % stability ([2]; reconstituted at 28.8 mM, 30 min): 97%
Mean % stability ([2]; reconstituted at 28.8 mM, 45 min): 96%
Mean % stability ([2]; reconstituted at 28.8 mM, 60 min): 95%
Mean % stability ([2]; reconstituted at 28.8 mM, 90 min): 94%
Mean % stability ([2]; reconstituted at 28.8 mM, 120 min): 92%
percent stable ([2]; reconstituted at 28.8 mM, up to 60 minutes): > 95%
stability ([2]; reconstituted at 75 mM, through 150 min): at least 95%
